These results are taken from PMC7176092, “Development of the first in vivo GPR17 ligand through an iterative drug discovery pipeline: A novel disease-modifying strategy for multiple sclerosis” (PLoS ONE, 2020).

In one assay the target is T1, M4 (Homo sapiens, UniProt P08173).
T1 construct: Eurofins Cerep (external service)
T1 sequence (P08173 1-479): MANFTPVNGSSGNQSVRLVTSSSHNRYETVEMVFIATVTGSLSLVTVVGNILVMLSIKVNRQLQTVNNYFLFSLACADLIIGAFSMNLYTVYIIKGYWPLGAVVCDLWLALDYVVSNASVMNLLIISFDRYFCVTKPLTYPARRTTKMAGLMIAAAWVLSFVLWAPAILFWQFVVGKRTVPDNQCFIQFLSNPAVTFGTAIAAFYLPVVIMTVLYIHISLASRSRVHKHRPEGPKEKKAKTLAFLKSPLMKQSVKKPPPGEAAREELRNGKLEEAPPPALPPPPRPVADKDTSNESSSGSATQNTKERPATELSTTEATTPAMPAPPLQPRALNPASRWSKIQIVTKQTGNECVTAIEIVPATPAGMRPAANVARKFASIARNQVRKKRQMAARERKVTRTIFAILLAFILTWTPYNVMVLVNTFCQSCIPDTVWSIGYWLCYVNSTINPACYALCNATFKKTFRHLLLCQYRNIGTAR
Put plainly: Binding assay M4. The settings on record: 100 nM.

The target in the next assay is T2, ADR1A (Homo sapiens, UniProt P35348).
T2 construct: Eurofins Cerep (external service)
T2 sequence (P35348 1-466): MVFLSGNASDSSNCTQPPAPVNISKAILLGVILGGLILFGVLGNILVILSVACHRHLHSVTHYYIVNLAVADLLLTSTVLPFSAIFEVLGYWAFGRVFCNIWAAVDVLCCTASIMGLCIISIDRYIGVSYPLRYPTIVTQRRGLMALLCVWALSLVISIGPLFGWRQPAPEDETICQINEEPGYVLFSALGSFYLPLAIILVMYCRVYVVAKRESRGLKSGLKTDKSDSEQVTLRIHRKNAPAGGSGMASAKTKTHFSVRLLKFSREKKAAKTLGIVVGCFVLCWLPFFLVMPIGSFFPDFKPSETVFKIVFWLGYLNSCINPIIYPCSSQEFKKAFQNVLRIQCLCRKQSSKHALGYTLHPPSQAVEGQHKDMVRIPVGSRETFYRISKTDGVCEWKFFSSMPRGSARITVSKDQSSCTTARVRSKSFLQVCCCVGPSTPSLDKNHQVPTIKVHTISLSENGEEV
Put plainly: Binding assay ADR1A. To be noted: 100 nM.

Another assay deals with T3, M1 (Homo sapiens, UniProt P11229).
T3 construct: Eurofins Cerep (external service)
T3 sequence (P11229 1-460): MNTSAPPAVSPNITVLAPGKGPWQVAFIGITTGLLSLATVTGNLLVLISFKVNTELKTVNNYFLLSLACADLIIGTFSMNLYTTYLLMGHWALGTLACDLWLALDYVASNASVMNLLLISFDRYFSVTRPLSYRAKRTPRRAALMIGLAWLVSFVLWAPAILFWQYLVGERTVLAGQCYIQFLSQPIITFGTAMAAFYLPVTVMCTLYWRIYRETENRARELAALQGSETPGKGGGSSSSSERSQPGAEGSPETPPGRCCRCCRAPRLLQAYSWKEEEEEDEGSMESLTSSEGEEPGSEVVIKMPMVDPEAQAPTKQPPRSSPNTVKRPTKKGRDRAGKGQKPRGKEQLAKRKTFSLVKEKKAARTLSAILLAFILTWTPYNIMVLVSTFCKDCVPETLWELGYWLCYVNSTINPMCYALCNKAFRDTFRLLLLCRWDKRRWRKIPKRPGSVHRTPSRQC
Briefly: Binding assay M1. To be noted: 100 nM.

A further assay addresses T4, ADR2B (Homo sapiens, UniProt P18089).
T4 construct: Eurofins Cerep (external service)
T4 sequence (P18089 1-450): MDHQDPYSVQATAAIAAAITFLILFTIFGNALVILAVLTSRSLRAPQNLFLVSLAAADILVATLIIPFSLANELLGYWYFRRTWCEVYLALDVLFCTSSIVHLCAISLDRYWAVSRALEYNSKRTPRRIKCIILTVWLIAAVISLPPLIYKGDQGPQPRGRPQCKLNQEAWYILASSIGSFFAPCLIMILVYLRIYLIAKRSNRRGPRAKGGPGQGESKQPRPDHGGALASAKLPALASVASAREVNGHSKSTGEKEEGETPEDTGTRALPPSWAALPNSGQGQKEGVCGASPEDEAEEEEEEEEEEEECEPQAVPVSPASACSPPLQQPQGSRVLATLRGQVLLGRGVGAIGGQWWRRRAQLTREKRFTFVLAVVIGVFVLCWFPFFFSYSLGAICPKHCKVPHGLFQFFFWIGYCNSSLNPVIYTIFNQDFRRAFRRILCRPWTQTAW
Put plainly: Binding assay ADR2B. To be noted: 100 nM.

Another assay addresses T5, CXCR5 (Homo sapiens, UniProt P32302).
T5 sequence (P32302 1-372): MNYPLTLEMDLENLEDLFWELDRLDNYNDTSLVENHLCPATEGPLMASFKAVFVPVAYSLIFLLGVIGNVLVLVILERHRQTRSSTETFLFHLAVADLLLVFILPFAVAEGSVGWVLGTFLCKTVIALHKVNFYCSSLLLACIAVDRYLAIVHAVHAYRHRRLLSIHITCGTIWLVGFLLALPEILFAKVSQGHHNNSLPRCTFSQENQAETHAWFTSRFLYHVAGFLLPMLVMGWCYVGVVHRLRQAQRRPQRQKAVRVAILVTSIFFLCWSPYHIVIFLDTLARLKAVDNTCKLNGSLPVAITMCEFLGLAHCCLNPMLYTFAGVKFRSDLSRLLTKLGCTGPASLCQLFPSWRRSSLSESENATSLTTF
Put plainly: Cellular functional assay CXCR5.

Where [1] appears, read: mean of 2, read-out: % Of control specific binding, Mean.
The mark [2] stands for this setting: read-out: % Inhibition of control specific binding.
[3] abbreviates: single replicates 1 and 2, 0.1 µM.
Where [4] appears, read: single replicates 1 and 2, read-out: % Of control specific binding.

Read-outs that look alike come from different tables or passages of the source.

Consider `Cc1ccc(-c2nnc(SCC(=O)Nc3nccs3)[nH]2)cc1` [Compound 9], for which the remaining activity at 0.1 µM was found to be 95.4% on M4 (setting [1]); 95.7% on M4 (setting [4]); 112% on ADR1A (setting [1]); 117% on ADR1A (setting [4]); 108% at M1 (setting [1]); 105% on M1 (setting [4]). In addition, the remaining activity at 0.1 µM at ADR2B (setting [1]) came out at 99.9%; at ADR2B (setting [4]), 104%. Moreover, the inhibition at 0.1 µM was 5% on M4 (setting [2]), -8% on M1 (setting [2]), 0% at ADR2B (setting [2]) and 1.2% at CXCR5 (read-out: % Inhibition of control agonist response). Also, the “% Of control specific binding” value at M4 (setting [3]) is on record as 95.1%; on ADR1A (setting [3]), 108.1%; at M1 (setting [3]) it was 110.2%; at ADR2B (setting [3]) it was 95.6%. Moreover, the “Agonist Response (% of Control)” value on CXCR5 (antagonist effect, 100 nM, single replicates 1st and 2nd, 0.1 µM) worked out at 99.7%. For the same compound, the activity at 0.1 µM came out at 102% on CXCR5 (read-out: Agonist Response (% of Control), Mean, antagonist effect, 100 nM, mean of 2); 103% on CXCR5 (read-out: Agonist Response (% of Control), antagonist effect, 100 nM, single replicates 1st and 2nd).
